Measured values reported in patent US11999697B2, “Methods and compositions for inhibition of dihydroorotate dehydrogenase” (OHIO STATE INNOVATION FOUNDATION, priority 2018, dated 2024).

Columns and labels:
Assay type in all cases: cell-based
[1] = tested on: AML cell lines (MOLM13, MV4-11, OCI-AML3); experiment: Formal synergy analysis (Combenefit, BLISS) with MDM2 inhibitor AMG-232; conditions: Cpd3 0-10 μM with AMG-232 0-10 μM
Experimental: FIGS. 6D-6F show formal synergy analysis following treatment of different cell-lines (as indicated below) with a representative disclosed compound, Cpd3 (0-10 μM), in the presence or absence of an MDM2 inhibitor, AMG-232 (0-10 μM). The formal synergy analysis was carried out using the Combenefit analysis program (Cambridge Research UK, Cambridge Institute, University of Cambridge, United Kingdom; see also Di Veroli G Y, et al. Bioinformatics. 2016; 32:2866-2868). Combenefit analysis software uses the Loewe, Bliss, and HSA (Highest Single Agent) models to generate surface analyses with statistical significance and global metrics/scores. Data shown for the cell-lines in FIGS. 6D-6F were obtained using the BLISS analysis.

[2] = tested on: MOLM-13; experiment: MTS cell proliferation assay, MOLM-13; conditions: Homo sapiens, 96 hours
Experimental: Triplicate wells were set up for each condition.
The assays were carried out in a blinded fashion.

[3] = tested on: primary human AML cells; experiment: Cytospin slides and Wright-Giemsa staining for differentiation; conditions: 1 μM, 14 days
Experimental: Cytospin slides and Wright-Giemsa staining for differentiation: Primary AML cells were solubilized from the methocult in the CFU assays. 150-300K cells were immobilized onto microscope slides and stained with Wright-Giemsa stain. Differentiated myeloid cells were recognized by the typical morphological changes associated with early neutrophil differentiation including a characteristic multi-lobed or kidney bean shaped nucleus.
The primary AML cells following treatment with Cpd3 were analyzed by Wright-Giemsa stain. FIGS. 4A-4C show representative micrographs of primary human AML cells treated a representative disclosed compound, Cpd3, compared to a reference compound, brequinar, or vehicle treatment using methods as described herein below. Briefly, primary AML cells were treated with vehicle (DMSO), Cpd3 (1 μM) or brequinar (BQR, 1 μM) and plated in semi-solid methylcellulose-based media for 14 days. Cells were recovered from the methylcellulose and immobilized on glass slides and stained with a Wright-Giemsa stain (the more differentiated myeloid cells are indicated by the red arrows). The images are shown for vehicle treatment (FIG. 4A); Cpd3 treatment (FIG. 4B); and brequinar treatment (FIG. 4C). The primary human AML cells are from a representative patient sample. […]

Structure (SMILES): CCOc1ccc(-c2ccc(-c3cc(C(=O)O)c4cc(F)ccc4n3)cc2)cc1 [Cpd3, 2-(4′-ethoxy-[1,1′-biphenyl]-4-yl)-6-fluoroquinoline-4-carboxylic acid]
- synergy with MDM2 inhibitor AMG-232 [1]: synergistic cell killing in AML cell lines
- IC50 [2]: 0.4 µM
- differentiation by Wright-Giemsa stain [3]: induces differentiation in primary human AML cells
